Reference: patent US10696637B2, “Nitrogen-containing heterocyclic compound” (FUJIFILM Corporation, priority 2015, dated 2020)

Test system: CXCL10 production
Experiment: CXCL10 production inhibition test
Assay type: cell-based
Settings: Endothelial cell; test compound 0.1 μmol/L; human umbilical vein-derived endothelial cells; TNFα 10 ng/mL; supernatant 72 hours after stimulation; ELISA; read-out: Rate of inhibition of CXCL10 production
Description: (CXCL10 Production Inhibition Test)
0.5×10^4 or 1×10^4 human umbilical vein-derived endothelial cells were suspended in 100 μL of an EGM-2 BulletKit medium (without GA) or a Medium-200 medium supplemented with an EGM-2 SingleQuots kit (without GA), inoculated to a 96-well plate and cultured overnight. 100 μL of a solution of each test compound diluted with the same medium as that used in the inoculation was added to the cultured cells (final concentration of the test compound: 0.1 μmol/L). 1 hour thereafter, TNFα was added thereto at a final concentration of 10 ng/mL. 72 hours after the stimulation, the supernatant was recovered, and the amount of CXCL10 produced in the culture supernatant was determined using an ELISA kit (Peprotech, 900-109).
The rate of inhibition was calculated according to the following expression: Rate of inhibition (%)=100−(Amount of CXCL10 produced in the presence of the test compound/Amount of CXCL10 produced in the absence of the test compound)×100

Row | Structure (SMILES) | inhibition at 0.1 µM
1 | CCn1c(=O)cc(N2CCOCC2)c2cc(-n3c(-c4ccc(C)cc4)cn(C)c3=O)ccc21 [Example 273, 1-ethyl-6-(3-methyl-5-(4-methylphenyl)-2-oxo-2,3-dihydro-1H-imidazol-1-yl)-4-(morpholin-4-yl)quinolin-2(1H)-one] | ≥ 50%
2 | CCn1c(=O)cc(N2CCOCC2)c2cc(-n3c(-c4ccc(C)cc4)c[nH]c3=O)ccc21 [Example 274] | ≥ 50%
3 | CCn1c(=O)cc(C2CC2)c2cc(-n3c(-c4ccc(C)cc4)cn(C)c3=O)ccc21 [Example 275, 4-cyclopropyl-1-ethyl-6-(3-methyl-5-(4-methylphenyl)-2-oxo-2,3-dihydro-1H-imidazol-1-yl)quinolin-2(1H)-one] | ≥ 50%
4 | CCn1c(=O)cc(C2CC2)c2cc(-n3c(-c4ccc(C)cc4)c[nH]c3=O)ccc21 [Example 276, 4-cyclopropyl-1-ethyl-6-(5-(4-methylphenyl)-2-oxo-2,3-dihydro-1H-imidazol-1-yl)quinolin-2(1H)-one] | ≥ 50%
5 | CCn1c(=O)cc(C2CC2)c2cc(-c3cccnc3-c3ccccc3)ccc21 [Example 278, 4-cyclopropyl-1-ethyl-6-(2-phenylpyridin-3-yl)quinolin-2(1H)-one] | ≥ 50%
6 | CCn1c(=O)cc(N2CCOCC2)c2cc(-c3cccnc3-c3ccccc3)ccc21 [Example 279, 1-ethyl-4-(morpholin-4-yl)-6-(2-phenylpyridin-3-yl)quinolin-2(1H)-one] | ≥ 50%
7 | CCn1c(=O)cc(C2CC2)c2cc(N3C(=O)C(C)C(=O)N3c3ccccc3)ccc21 (stereo not drawn) [Example 280, 1-(4-cyclopropyl-1-ethyl-2-oxo-1,2-dihydroquinolin-6-yl)-4-methyl-2-phenylpyrazolidine-3,5-dione] | ≥ 50%
8 | CCC1C(=O)N(c2ccccc2)N(c2ccc3c(c2)c(C2CC2)cc(=O)n3CC)C1=O (stereo not drawn) [Example 281, 1-(4-cyclopropyl-1-ethyl-2-oxo-1,2-dihydroquinolin-6-yl)-4-ethyl-2-phenylmazolidine-3,5-dione] | ≥ 50%
9 | CCn1c(=O)cc(C2CC2)c2cc(-n3c(=O)cc(C)n3-c3ccccc3)ccc21 [Example 282a, 4-cyclopropyl-1-ethyl-6-(3-methyl-5-oxo-2-phenyl-2,5-dihydro-1H-pyrazol-1-yl)quinolin-2(1H)-one] | ≥ 50%
10 | CCn1c(=O)cc(C2CC2)c2cc(-n3c(C)cc(=O)n3-c3ccccc3)ccc21 [Example 282b, 4-cyclopropyl-1-ethyl-6-(5-methyl-3-oxo-2-phenyl-2,3-dihydro-1H-pyrazol-1-yl)quinolin-2(1H)-one] | ≥ 50%
11 | CCn1c(=O)cc(C2CC2)c2cc(-c3nc(C)[nH]c3-c3ccccc3)ccc21 [Example 283, 4-cyclopropyl-1-ethyl-6-(2-methyl-5-phenyl-1H-imidazol-4-yl)quinolin-2(1H)-one] | ≥ 50%
12 | CCn1c(=O)cc(C2CC2)c2cc(-c3nccnc3-c3ccccc3)ccc21 [Example 284, 4-cyclopropyl-1-ethyl-6-(3-phenylpyradin-2-yl)quinolin-2(1H)-one] | ≥ 50%
13 | CCn1c(=O)cc(C2CCC(O)CC2)c2cc(C(=O)N(C)c3ccc(Cl)cc3)ccc21 (stereo not drawn) [Example 286, N-(4-chlorophenyl)-1-ethyl-4-(4-hydroxycyclohexyl)-N-methyl-2-oxo-1,2-dihydroquinoline-6-carboxamide] | ≥ 50%
14 | CCn1c(=O)cc(C2CCN(C(C)=O)CC2)c2cc(C(=O)N(C)c3ccc(C)cc3)ccc21 [Example 290, 4-(1-acetylpiperidin-4-yl)-1-ethyl-N-methyl-N-(4-methylphenyl)-2-oxo-1,2-dihydroquinoline-6-carboxamide] | ≥ 50%
15 | CCn1c(=O)cc(C)c2cc(-c3cccnc3-c3ccccc3)ccc21 [Example 291, 1-ethyl-4-methyl-6-(2-phenylpyridin-3-yl)quinolin-2(1H)-one] | ≥ 50%
